Test results from patent US20100099561A1, “HETEROBICYCLIC ALKYLTHIO-BRIDGED ISOXAZOLINES” (E.I. DU PONT DE NEMOURS AND COMPANY, priority 2008, published 2010).

Columns and labels:
Format in all cases: in vivo
[1] = test system: morningglory (Ipomoea spp.); experiment: Test A preemergence, morningglory; conditions: 0 to 100 scale (0 no effect, 100 complete control)
In short: (§1)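 Greenhouse pre/postemergence test, loam–sand soil. Postemergence plants one- to two-leaf, 2–10 cm. Visual injury rating ~10 d after treatment, 0–100 vs untreated.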

[2] = test system: barnyardgrass (Echinochloa crus-galli); experiment: Test A preemergence, barnyardgrass; conditions: 0 to 100 scale (0 no effect, 100 complete control)
In short: as §1

[3] = test system: velvetleaf (Abutilon theophrasti); experiment: Test A preemergence, velvetleaf; conditions: 0 to 100 scale (0 no effect, 100 complete control)
In short: as §1

[4] = test system: barnyardgrass (Echinochloa crus-galli); experiment: Test A postemergence, barnyardgrass; conditions: 0 to 100 scale (0 no effect, 100 complete control)
In short: as §1

[5] = test system: giant foxtail (Setaria faberi); experiment: Test A postemergence, giant foxtail; conditions: 0 to 100 scale (0 no effect, 100 complete control)
In short: as §1

[6] = test system: barnyardgrass (Echinochloa crus-galli); experiment: Test B flooded paddy test, barnyardgrass; conditions: Flood
In short: (§2)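 2-leaf plants; pots flooded 3 cm above soil; compound added to paddy water; depth maintained. Greenhouse 13–15 d. Visual rating vs controls, 0 (no effect) to 100 (complete control); dash = no result.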

[7] = test system: large crabgrass (Digitaria sanguinalis); experiment: Test A postemergence, large crabgrass; conditions: 0 to 100 scale (0 no effect, 100 complete control)
In short: as §1

[8] = test system: morningglory (Ipomoea spp.); experiment: Test A postemergence, morningglory; conditions: 0 to 100 scale (0 no effect, 100 complete control)
In short: as §1

[9] = test system: rice (Oryza sativa); experiment: Test B flooded paddy test, rice; conditions: Flood, scale 0 to 100
In short: as §2

[10] = test system: velvetleaf (Abutilon theophrasti); experiment: Test A postemergence, velvetleaf; conditions: 0 to 100 scale (0 no effect, 100 complete control)
In short: as §1

[11] = test system: giant foxtail (Setaria faberi); experiment: Test A preemergence, giant foxtail; conditions: 0 to 100 scale (0 no effect, 100 complete control)
In short: as §1

[12] = test system: umbrella sedge (Cyperus difformis); experiment: Test B flooded paddy test, umbrella sedge; conditions: Flood, scale 0 to 100
In short: as §2

[13] = test system: pigweed (Amaranthus retroflexus); experiment: Test A preemergence, pigweed; conditions: 0 to 100 scale (0 no effect, 100 complete control)
In short: as §1

[14] = test system: wheat (Triticum aestivum); experiment: Test A postemergence, wheat; conditions: 0 to 100 scale (0 no effect, 100 complete control)
In short: as §1

[15] = test system: corn (Zea mays); experiment: Test A preemergence, corn; conditions: 0 to 100 scale (0 no effect, 100 complete control)
In short: as §1

[16] = test system: large crabgrass (Digitaria sanguinalis); experiment: Test A preemergence, large crabgrass; conditions: 0 to 100 scale (0 no effect, 100 complete control)
In short: as §1

[17] = test system: pigweed (Amaranthus retroflexus); experiment: Test A postemergence, pigweed; conditions: 0 to 100 scale (0 no effect, 100 complete control)
In short: as §1

[18] = test system: ducksalad (Heteranthera limosa); experiment: Test B flooded paddy test, ducksalad; conditions: Flood, scale 0 to 100
In short: as §2

[19] = test system: wheat (Triticum aestivum); experiment: Test A preemergence, wheat; conditions: 0 to 100 scale (0 no effect, 100 complete control)
In short: as §1

[20] = test system: corn (Zea mays); experiment: Test A postemergence, corn; conditions: 0 to 100 scale (0 no effect, 100 complete control)
In short: as §1

[21] = 250 g ai/ha, scale 0 to 100 (0 no effect, 100 complete control)

| SMILES | Plant response rating, Morningglory ([1]; 125 g ai/ha) | Plant response rating, Barnyardgrass ([2]; 125 g ai/ha) | Plant response rating, Barnyardgrass ([2]; 500 g ai/ha) | Plant response rating, Velvetleaf ([3]; 125 g ai/ha) | Plant response rating, Velvetleaf ([3]; 500 g ai/ha) | Plant response rating, Barnyardgrass ([4]; 125 g ai/ha) | Plant response rating, Barnyardgrass ([4]; 500 g ai/ha) | Plant response rating, Foxtail, Giant ([5]; 125 g ai/ha) | Plant response rating, Foxtail, Giant ([5]; 500 g ai/ha) | Plant response rating, Barnyardgrass ([6]; 62 g ai/ha, scale 0 to 100) | Plant response rating, Barnyardgrass [6, 21] | Plant response rating, Crabgrass, Large ([7]; 125 g ai/ha) | Plant response rating, Crabgrass, Large ([7]; 500 g ai/ha) | Plant response rating, Morningglory ([8]; 125 g ai/ha) | Plant response rating, Morningglory ([8]; 500 g ai/ha) | Plant response rating, Rice ([9]; 62 g ai/ha) | Plant response rating, Rice ([9]; 250 g ai/ha) | Plant response rating, Velvetleaf ([10]; 125 g ai/ha) | Plant response rating, Velvetleaf ([10]; 500 g ai/ha) | Plant response rating, Foxtail, Giant ([11]; 125 g ai/ha) | other results |
| --- | --- | --- | --- | --- | --- | --- | --- | --- | --- | --- | --- | --- | --- | --- | --- | --- | --- | --- | --- | --- | --- |
| CC1(C)CC(S(=O)(=O)Cc2c(C(F)(F)F)nc3cnccn3c2=O)=NO1 [Compound 52] | 0 | 20 | 80 | 0 | 0 | 30 | 90 | 60 | 80 | 0 | 0 | 20 | 50 | 0 | 30 | 0 | 0 | 0 | 0 | 40 | Plant response rating, Morningglory ([1]; 500 g ai/ha): 0; Plant response rating, Foxtail, Giant ([11]; 500 g ai/ha): 90; Plant response rating, Sedge, Umbrella ([12]; 62 g ai/ha): 0; Plant response rating, Sedge, Umbrella ([12]; 250 g ai/ha): 0; Plant response rating, Pigweed ([13]; 125 g ai/ha): 0; Plant response rating, Pigweed ([13]; 500 g ai/ha): 0; Plant response rating, Wheat ([14]; 125 g ai/ha): 0; Plant response rating, Wheat ([14]; 500 g ai/ha): 30; Plant response rating, Corn ([15]; 125 g ai/ha): 0; Plant response rating, Corn ([15]; 500 g ai/ha): 0; Plant response rating, Crabgrass, Large ([16]; 125 g ai/ha): 20; Plant response rating, Crabgrass, Large ([16]; 500 g ai/ha): 80; Plant response rating, Pigweed ([17]; 125 g ai/ha): 0; Plant response rating, Pigweed ([17]; 500 g ai/ha): 0; Plant response rating, Ducksalad ([18]; 62 g ai/ha): 0; Plant response rating, Ducksalad ([18]; 250 g ai/ha): 0; Plant response rating, Wheat ([19]; 125 g ai/ha): 0; Plant response rating, Wheat ([19]; 500 g ai/ha): 0; Plant response rating, Corn ([20]; 125 g ai/ha): 0; Plant response rating, Corn ([20]; 500 g ai/ha): 0 |
| Cc1cc2nc(C(F)(F)F)c(CS(=O)(=O)C3=NOC(C)(C)C3)c(=O)n2o1 [Compound 53] | 0 | 30 | 90 | 0 | 0 | 50 | 90 | 60 | 80 | 0 | 0 | 30 | 80 | 0 | 10 | 0 | 0 | 0 | 0 | 30 | Plant response rating, Foxtail, Giant ([11]; 500 g ai/ha): 90; Plant response rating, Sedge, Umbrella ([12]; 62 g ai/ha): 0; Plant response rating, Sedge, Umbrella ([12]; 250 g ai/ha): 0; Plant response rating, Pigweed ([13]; 125 g ai/ha): 0; Plant response rating, Pigweed ([13]; 500 g ai/ha): 0; Plant response rating, Wheat ([14]; 125 g ai/ha): 0; Plant response rating, Wheat ([14]; 500 g ai/ha): 20; Plant response rating, Corn ([15]; 125 g ai/ha): 0; Plant response rating, Corn ([15]; 500 g ai/ha): 0; Plant response rating, Crabgrass, Large ([16]; 125 g ai/ha): 30; Plant response rating, Crabgrass, Large ([16]; 500 g ai/ha): 90; Plant response rating, Pigweed ([17]; 125 g ai/ha): 0; Plant response rating, Pigweed ([17]; 500 g ai/ha): 0; Plant response rating, Ducksalad ([18]; 62 g ai/ha): 0; Plant response rating, Ducksalad ([18]; 250 g ai/ha): 0; Plant response rating, Wheat ([19]; 125 g ai/ha): 0; Plant response rating, Wheat ([19]; 500 g ai/ha): 0; Plant response rating, Corn ([20]; 125 g ai/ha): 0; Plant response rating, Corn ([20]; 500 g ai/ha): 0 |
